Key:
[1] = target: human aldose reductase (AKR1B1) (Homo sapiens, UniProt P15121); experiment: Surface Plasmon Resonance (SPR) binding assay, immobilized protein; details: for binding to immobilized AKR1B1 in SPR: 200, 100, 50, 25, 12 μM, triplicates
Procedure: (§1) Briefly, mouse extracellular domain 1–2 (EC 1–2) C-terminally cysteine-tagged FABP4 and Aldose Reductase recombinant protein was immobilized on flow cell (FC) 2 in HEPES buffered saline (10 mM Hepes, pH 7.4, and 150 mM NaCl, 3 mM CaCl2) using a thiol-coupling kit according to the manufacturer’s protocol, resulting in immobilization levels of 4580 response units (RU). FC1 was only activated and inactivated and used as a reference. […] Each injection was repeated three times for 60 s. FC1 signals were deducted from FC2 for background noise elimination.

[2] = target: T1, human adipocyte fatty acid-binding protein (FABP4) (Homo sapiens, UniProt P15090); experiment: as above; details: for binding to immobilized FABP4 in SPR: 200, 100, 50, 25, 12 μM, triplicates
T1 sequence (P15090 2-132): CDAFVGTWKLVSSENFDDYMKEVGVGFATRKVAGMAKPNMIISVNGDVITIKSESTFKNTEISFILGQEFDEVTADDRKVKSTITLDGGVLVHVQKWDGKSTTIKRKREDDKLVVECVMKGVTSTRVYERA
Procedure: as §1

MKNK2 = target: T2, MKNK2 (Homo sapiens, UniProt Q9HBH9); experiment: Kinomescan active site-directed competition kinase binding assay; details: read-out: Percent Control at 10 µM (Lower Numbers Indicate Stronger Hits)
T2 construct: purchased Discoverx (Kinomescan)
Procedure: (§2) Kinase assays were performed using Kinomescan, by Discoverx, CA, USA and Caliper LabChip 3000 by Caliper Life sciences, USA as described by us previously. The determination of Mebendazole (MBZ) thermodynamic binding affinities (Kd) to kinase targets predicted by ES-Screen was performed by using active site-directed competition binding. Kinase-tagged T7 phage strains were grown in parallel in 24-well blocks in an E. coli host derived from the BL21 strain. E. coli bacteria were grown to log-phase and infected with T7 phage from a frozen stock (multiplicity of infection = 0.4) and incubated with shaking at 32 °C until lysis (90–150 min). The lysates were centrifuged (6000× g) and filtered (0.2 μm sieves) to remove cell debris. The remaining kinases were produced in HEK-293 cells and subsequently tagged with DNA for qPCR detection. […] The liganded beads were blocked with excess biotin and washed with blocking buffer (SeaBlock (Pierce), 1% BSA, 0.05% Tween 20, 1 mM DTT) to remove unbound ligands and to reduce non-specific phage binding. Binding reactions were assembled by combining kinases, control liganded affinity beads, and mebendazole in 1× binding buffer (20% SeaBlock, 0.17 × PBS, 0.05% Tween 20, 6 mM DTT). Mebendazole was prepared as 40× stocks in 100% DMSO and directly diluted into the assay. All reactions were performed in polypropylene 384-well plates in a final volume of 0.04 mL. The assay plates were incubated at room temperature with shaking for 1 h and the affinity beads were washed with wash buffer (1 × PBS, 0.05% Tween 20). […] The kinase concentration in the eluates was measured by qPCR. Ligands that bind the kinase active site and directly prevent kinase binding to the immobilized ligand will reduce the amount of kinase captured. […] The amount of kinase captured in test versus control samples were measured by using a quantitative, precise and ultra-sensitive qPCR method that detects the associated DNA label. Using the primary screen binding interactions are reported as ‘% Ctrl’ (Percent kinase remaining activity, Equation (8)), where lower numbers indicate stronger hits. (8) Percent Control (%Ctrl)=Mebendazole signal − Positive control signal/DMSO Negative control signal − Positive control signal × 100
(§3) In a similar manner, binding constants (Kd) for mebendazole-kinase interactions are calculated by measuring the amount of kinase captured as a function of the mebendazole concentration in a dose response manner. […] Most Kds were determined using a starting concentration = 30,000 nM. […] Binding constants (Kd) were calculated with a standard dose–response curve (ligand dose (x-axis)—qPCR signal (y-axis)) using the Hill Equation (9), with the Hill Slope set to −1. […]

JAK2 = target: T3, JAK2 (Homo sapiens, UniProt O60674); experiment: as above; details: read-out: Percent Control at 10 µM (Lower Numbers Indicate Stronger Hits)
T3 construct: purchased Discoverx (Kinomescan)
Procedure: as §2, §3

RAF1 = target: T4, RAF1 (Homo sapiens, UniProt P04049); experiment: as above; details: read-out: Percent Control at 10 µM (Lower Numbers Indicate Stronger Hits)
T4 construct: purchased Discoverx (Kinomescan)
Procedure: as §2, §3

PIK3CG = target: T5, PIK3CG (Homo sapiens, UniProt P48736); experiment: as above; details: read-out: Percent Control at 10 µM (Lower Numbers Indicate Stronger Hits)
T5 construct: purchased Discoverx (Kinomescan)
Procedure: as §2, §3

T3 sequence (O60674 840-1132 limits assumed): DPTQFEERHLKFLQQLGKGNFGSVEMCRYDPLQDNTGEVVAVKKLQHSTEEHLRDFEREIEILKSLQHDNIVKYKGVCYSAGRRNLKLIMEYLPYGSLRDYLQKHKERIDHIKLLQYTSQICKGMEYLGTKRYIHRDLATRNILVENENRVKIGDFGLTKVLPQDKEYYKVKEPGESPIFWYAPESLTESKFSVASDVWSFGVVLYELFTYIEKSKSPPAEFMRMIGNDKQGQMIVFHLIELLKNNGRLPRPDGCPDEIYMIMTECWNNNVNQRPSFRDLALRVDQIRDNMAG
T5 sequence (P48736 whole entry): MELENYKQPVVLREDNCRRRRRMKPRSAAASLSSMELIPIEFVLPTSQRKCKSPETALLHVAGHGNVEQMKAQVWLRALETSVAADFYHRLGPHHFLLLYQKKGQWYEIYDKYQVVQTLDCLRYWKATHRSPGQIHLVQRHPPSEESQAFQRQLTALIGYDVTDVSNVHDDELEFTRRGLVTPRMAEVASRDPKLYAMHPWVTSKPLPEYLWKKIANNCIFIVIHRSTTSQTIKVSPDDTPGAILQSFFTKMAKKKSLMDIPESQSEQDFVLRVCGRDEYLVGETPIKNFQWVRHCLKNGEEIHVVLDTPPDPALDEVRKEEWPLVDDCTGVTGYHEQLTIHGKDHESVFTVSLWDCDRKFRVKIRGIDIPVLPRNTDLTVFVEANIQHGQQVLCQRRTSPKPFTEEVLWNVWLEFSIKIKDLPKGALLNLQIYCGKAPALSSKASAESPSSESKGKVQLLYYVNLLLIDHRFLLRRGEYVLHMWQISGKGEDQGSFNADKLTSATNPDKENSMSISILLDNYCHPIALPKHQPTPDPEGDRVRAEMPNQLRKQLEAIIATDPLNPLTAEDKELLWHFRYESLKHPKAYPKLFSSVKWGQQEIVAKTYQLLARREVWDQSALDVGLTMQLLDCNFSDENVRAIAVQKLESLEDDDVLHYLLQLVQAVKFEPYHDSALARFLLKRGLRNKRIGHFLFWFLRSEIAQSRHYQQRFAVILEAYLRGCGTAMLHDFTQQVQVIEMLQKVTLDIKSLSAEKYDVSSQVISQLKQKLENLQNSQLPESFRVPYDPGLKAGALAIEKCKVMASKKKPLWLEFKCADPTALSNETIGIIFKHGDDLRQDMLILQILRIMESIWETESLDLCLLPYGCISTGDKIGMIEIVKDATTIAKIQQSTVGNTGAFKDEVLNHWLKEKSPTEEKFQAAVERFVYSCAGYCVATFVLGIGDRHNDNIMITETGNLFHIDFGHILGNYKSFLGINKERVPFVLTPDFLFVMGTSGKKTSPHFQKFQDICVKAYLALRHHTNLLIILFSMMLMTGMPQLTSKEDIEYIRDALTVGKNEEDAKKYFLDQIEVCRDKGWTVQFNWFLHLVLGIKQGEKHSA
T4 sequence (P04049 whole entry): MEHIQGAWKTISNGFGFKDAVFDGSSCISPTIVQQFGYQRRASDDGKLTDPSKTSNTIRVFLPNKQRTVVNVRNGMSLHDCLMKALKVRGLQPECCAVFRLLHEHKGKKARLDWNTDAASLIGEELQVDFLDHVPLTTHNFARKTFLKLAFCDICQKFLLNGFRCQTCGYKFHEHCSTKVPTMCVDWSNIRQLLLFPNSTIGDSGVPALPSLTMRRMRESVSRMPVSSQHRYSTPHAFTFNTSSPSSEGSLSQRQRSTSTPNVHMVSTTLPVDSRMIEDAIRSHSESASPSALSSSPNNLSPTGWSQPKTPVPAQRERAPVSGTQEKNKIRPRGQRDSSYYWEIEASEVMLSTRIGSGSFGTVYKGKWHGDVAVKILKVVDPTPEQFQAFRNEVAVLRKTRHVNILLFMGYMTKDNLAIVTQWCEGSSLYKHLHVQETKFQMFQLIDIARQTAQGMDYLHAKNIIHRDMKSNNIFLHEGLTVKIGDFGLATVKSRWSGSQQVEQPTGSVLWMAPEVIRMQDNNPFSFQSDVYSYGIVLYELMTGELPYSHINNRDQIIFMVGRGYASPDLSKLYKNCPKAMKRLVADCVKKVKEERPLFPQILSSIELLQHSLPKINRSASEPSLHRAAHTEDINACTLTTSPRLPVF
T2 sequence (Q9HBH9 whole entry): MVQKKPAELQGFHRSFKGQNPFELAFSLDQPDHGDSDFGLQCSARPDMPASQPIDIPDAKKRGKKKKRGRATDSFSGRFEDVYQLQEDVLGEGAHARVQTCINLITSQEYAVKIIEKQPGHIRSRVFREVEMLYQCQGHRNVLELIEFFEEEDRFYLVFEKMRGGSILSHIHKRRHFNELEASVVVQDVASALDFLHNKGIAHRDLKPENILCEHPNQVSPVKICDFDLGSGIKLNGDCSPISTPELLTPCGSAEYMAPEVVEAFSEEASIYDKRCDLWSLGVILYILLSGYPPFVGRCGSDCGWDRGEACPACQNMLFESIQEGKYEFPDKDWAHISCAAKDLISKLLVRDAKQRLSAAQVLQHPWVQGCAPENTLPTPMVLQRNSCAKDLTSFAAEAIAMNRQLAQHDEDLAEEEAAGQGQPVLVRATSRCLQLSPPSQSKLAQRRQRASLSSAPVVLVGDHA

| Structure (SMILES) | binding to immobilized AKR1B1 in SPR [1] | binding to immobilized FABP4 in SPR [2] | remaining binding at 10 µM (MKNK2) [%] | percent of control kinase binding at 10 µM (JAK2) [%] | remaining binding at 10 µM (RAF1) [%] | remaining binding at 10 µM (PIK3CG) [%] | Kd ([1]; SPR, AKR1B1, read-out: KD50) [µM] | Kd ([2]; SPR, FABP4, read-out: KD50) [µM] |
| --- | --- | --- | --- | --- | --- | --- | --- | --- |
| O=C(O)CCc1nc(-c2ccccc2)c(-c2ccccc2)o1 [oxaprozin] | in a dose-dependent manner | in a dose-dependent manner |  |  |  |  |  |  |
| CC1(C)Cc2c(-c3ccccc3)c(-c3ccc(Cl)cc3)c(CC(=O)O)n2C1 [licofelone] | in a dose-dependent manner | in a dose-dependent manner |  |  |  |  |  |  |
| COC(=O)Nc1nc2ccc(C(=O)c3ccccc3)cc2[nH]1 [mebendazole] | bind directly, in a dose-dependent manner | bind directly, in a dose-dependent manner | 46 | 39 | 23 | 18 | 5.5 | 8.4 |
| COc1ccc2c(c1)c(CC(=O)O)c(C)n2C(=O)c1ccc(Cl)cc1 [indomethacin] | in a dose-dependent manner | in a dose-dependent manner |  |  |  |  |  |  |
